Results taken from patent US20240197712A1, “TGF-BETA INHIBITION FOR IMMUNODEFICIENCY VIRUS REACTIVATION FROM LATENCY, ENHANCEMENT OF IMMUNODEFICIENCY VIRUS-SPECIFIC RESPONSES AND IMMUNODEFICIENCY VIRUS CURE” (Northwestern University, priority 2022, published 2024).

How the values were obtained:
Assay type in all cases: in vivo, rhesus macaques
[1] = tested on: pSMAD2/3; assay: PhosphoSMAD2/3 over total SMAD2/3 in PBMC (ELISA); details: 2.5 or 5 mg/kg twice daily, 9 days
Description: Eight naïve macaques (FIG. 9) were used to collect plasma and PBMC for PK/PD studies. 4 macaques received galunisertib (2.5 mg/kg, n=2 or 5 mg/kg, n=2) once and blood was collected at 1 hr, 3 hr and 6 hrs, 24 hrs and 48 hrs. 4 macaques received galunisertib (2.5 mg/kg, n=2 or 5 mg/kg, n=2) twice daily for 9 days and samples were collected 1 hr, 3 hr and 8 hrs after administration on day 1 and on day 9 right before and 1 hr and 3 and 6 hrs after the last administration. Plasma concentrations of galunisertib were measured by IMSERC (Integrated Molecular Structure Education and Research Center) utilizing liquid chromatography mass spectrometry (Shimadzu Kyoto, Japan ultra-high performance liquid chromatography—UHPLC—system and SCIEX Framingham, MA Qtrap 6500+ triple quadrupole mass spectrometer). […] All samples and standards were processed in duplicate with the average area under the curve (AUC) being used for quantitation reporting. […] The resulting limit of quantitation (LOQ) was 1.0 ng/ml.
For PD studies, the levels of phosphorylated SMAD2/3 were measured using the PathScan PhospoSMAD2/3 ELISA kit (Cell Signaling Technology, CST) over the levels of Total SMAD2/3 in cell lysates Total SMAD ELISA Kit (Cell Signaling Technology, CST) normalized on protein content.

[2] = tested on: SIVmac239 gag, pol and env peptides; assay: SIV-specific responses, FluoroSpot of PBMC
Description: Cytokines in plasma (at 1:2 dilution) were measured using the NHP Cytokine 24-Plex kit by Meso Scale Diagnostics (MSD) according to manufacturer instructions. Frozen PBMC collected at week 6 post-infection (pre-ART), right before the first galunisertib administration (BC1), at the end of cycle 1 (AC1) and at the end of cycle 3 (AC3) were thawed in AIM V medium (ThermoFisher) with benzonase (Sigma) and plated on a FluoroSpot (CTL) plate pre-activated with 70% Ethanol and IFN-γ, TNF-α and IL-2 capture solution. Gag, pol, and env 15-mer peptides (NIH AIDS Reagents program) were prepared at two times the final concentration of 2.5 μg/ml with co-stimulatory reagents anti-CD28 10 μg/ml and anti-CD49d 10 μg/ml and added to the cells in CTL-Test™ Medium. Parallel positive […] control of PMA (20 ng/ml) and ionomycin (200 ng/mL) or mock DMSO solution was also plated with the stimulatory reagents. PBMCs were added at 300,000 cells per well. After 24 hrs, the plate was washed, and incubated with detection and tertiary solutions and shipped to CTL for scanning and QC.

[3] = tested on: SIV-env; assay: Anti-envelope antibody titers (ELISA); details: in 3 of the 7 macaques
Description: 96-well plates were coated with the SIV gp130 Recombinant protein 595 (AIDS reagents program, Division of AIDS, NIAID, NIH at 1 μg/ml in coating carbonate buffer 2 hours at room temperature (RT). After washing the plates 4 times with washing buffer, the plates were incubated in blocking buffer (2% BSA in PBS) overnight. Plates were washed and dilutions of test sera or control sera were added to the plate starting at 1:50. Sera were incubated at 37° C. for 30′ and plate washed and detected with anti-Rhesus IgG HRP (NHPRR) 30′ at 37° C. After washing and substrate incubation at RT for 30′ plates were read at 450/650 nm.

Cc1cccc(-c2nn3c(c2-c2ccnc4ccc(C(N)=O)cc24)CCC3)n1 [galunisertib, Galunisertib]
reduction in pSMAD2/3 over total SMAD in PBMC [1]: ~25% | IL-2 release ([2]; end of 3rd cycle): remained unchanged | IFN-γ secretion, SIV-specific and non-specific ([2]; end of the 3rd cycle vs BC1): significant increase | TNF-α release ([2]; in response to Gag and non-specifically): increased | increase in the titer of SIV-env specific antibodies [3]: 0.5 to 1 Log
